Assay results from ChEMBL document CHEMBL5465560, “Selectivity Literature for EUbOPEN Chemogenomic Library” (2024).
Values belong to the compound of their own block, whether it stands above or below them.

Assays:
[1] = molecular target: Serine/threonine-protein kinase PLK1 (Homo sapiens, UniProt P53350); experiment: Selectivity interaction (ActivX KiNativ screen (kinase selectivity in THP-1 cell lysates)) EUB0000639a PLK1; format: subcellular; settings: lysate, at 0.04 µM
[2] = molecular target: B1 bradykinin receptor (Homo sapiens) (UniProt P46663); experiment: Selectivity interaction (Eurofins CEREP Diversity Profile (receptors and ion channels)) EUB0000279b BDKRB1; settings: at 10 µM
Chain of B1 bradykinin receptor (Homo sapiens) (P46663 whole entry): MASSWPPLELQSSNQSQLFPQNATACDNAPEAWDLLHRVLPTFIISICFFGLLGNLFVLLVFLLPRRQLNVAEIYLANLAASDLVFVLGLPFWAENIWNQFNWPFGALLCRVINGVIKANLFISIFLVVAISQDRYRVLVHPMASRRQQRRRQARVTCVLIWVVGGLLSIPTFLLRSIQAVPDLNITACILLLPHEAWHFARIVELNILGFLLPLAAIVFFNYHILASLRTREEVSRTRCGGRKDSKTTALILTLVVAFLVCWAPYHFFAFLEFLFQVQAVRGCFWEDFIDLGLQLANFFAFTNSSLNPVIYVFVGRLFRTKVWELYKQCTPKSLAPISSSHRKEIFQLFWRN

[3] = molecular target: 5'-AMP-activated protein kinase catalytic subunit alpha-1 (Homo sapiens, UniProt Q13131); experiment: Selectivity interaction (KinomeScan (DiscoverX)) EUB0000092b PRKAA1; settings: at 10 µM
Chain of 5'-AMP-activated protein kinase catalytic subunit alpha-1 (Q13131 whole entry, looked up): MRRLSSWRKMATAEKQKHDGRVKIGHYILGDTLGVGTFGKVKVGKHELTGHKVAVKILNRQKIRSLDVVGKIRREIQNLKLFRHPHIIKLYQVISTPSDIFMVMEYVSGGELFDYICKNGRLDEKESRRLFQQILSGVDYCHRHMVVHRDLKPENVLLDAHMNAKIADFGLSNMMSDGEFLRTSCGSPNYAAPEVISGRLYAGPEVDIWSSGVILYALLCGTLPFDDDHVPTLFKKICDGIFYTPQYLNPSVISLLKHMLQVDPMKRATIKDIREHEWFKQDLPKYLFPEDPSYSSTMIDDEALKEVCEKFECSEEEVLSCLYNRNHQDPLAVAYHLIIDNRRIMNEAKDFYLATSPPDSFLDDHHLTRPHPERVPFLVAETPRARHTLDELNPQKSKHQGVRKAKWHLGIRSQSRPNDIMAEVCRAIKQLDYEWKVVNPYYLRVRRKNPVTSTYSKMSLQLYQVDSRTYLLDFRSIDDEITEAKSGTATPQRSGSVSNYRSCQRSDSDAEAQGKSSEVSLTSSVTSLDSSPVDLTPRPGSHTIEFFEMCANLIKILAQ

[4] = molecular target: T1, Mitogen-activated protein kinase kinase kinase 15 (Homo sapiens) (UniProt Q6ZN16); experiment: Selectivity interaction (Kinase panel (KiNativ target engagement assay in Jurkat cells)) EUB0001635a MAP3K15; format: cell-based; settings: at 1 µM
T1 sequence (whole entry): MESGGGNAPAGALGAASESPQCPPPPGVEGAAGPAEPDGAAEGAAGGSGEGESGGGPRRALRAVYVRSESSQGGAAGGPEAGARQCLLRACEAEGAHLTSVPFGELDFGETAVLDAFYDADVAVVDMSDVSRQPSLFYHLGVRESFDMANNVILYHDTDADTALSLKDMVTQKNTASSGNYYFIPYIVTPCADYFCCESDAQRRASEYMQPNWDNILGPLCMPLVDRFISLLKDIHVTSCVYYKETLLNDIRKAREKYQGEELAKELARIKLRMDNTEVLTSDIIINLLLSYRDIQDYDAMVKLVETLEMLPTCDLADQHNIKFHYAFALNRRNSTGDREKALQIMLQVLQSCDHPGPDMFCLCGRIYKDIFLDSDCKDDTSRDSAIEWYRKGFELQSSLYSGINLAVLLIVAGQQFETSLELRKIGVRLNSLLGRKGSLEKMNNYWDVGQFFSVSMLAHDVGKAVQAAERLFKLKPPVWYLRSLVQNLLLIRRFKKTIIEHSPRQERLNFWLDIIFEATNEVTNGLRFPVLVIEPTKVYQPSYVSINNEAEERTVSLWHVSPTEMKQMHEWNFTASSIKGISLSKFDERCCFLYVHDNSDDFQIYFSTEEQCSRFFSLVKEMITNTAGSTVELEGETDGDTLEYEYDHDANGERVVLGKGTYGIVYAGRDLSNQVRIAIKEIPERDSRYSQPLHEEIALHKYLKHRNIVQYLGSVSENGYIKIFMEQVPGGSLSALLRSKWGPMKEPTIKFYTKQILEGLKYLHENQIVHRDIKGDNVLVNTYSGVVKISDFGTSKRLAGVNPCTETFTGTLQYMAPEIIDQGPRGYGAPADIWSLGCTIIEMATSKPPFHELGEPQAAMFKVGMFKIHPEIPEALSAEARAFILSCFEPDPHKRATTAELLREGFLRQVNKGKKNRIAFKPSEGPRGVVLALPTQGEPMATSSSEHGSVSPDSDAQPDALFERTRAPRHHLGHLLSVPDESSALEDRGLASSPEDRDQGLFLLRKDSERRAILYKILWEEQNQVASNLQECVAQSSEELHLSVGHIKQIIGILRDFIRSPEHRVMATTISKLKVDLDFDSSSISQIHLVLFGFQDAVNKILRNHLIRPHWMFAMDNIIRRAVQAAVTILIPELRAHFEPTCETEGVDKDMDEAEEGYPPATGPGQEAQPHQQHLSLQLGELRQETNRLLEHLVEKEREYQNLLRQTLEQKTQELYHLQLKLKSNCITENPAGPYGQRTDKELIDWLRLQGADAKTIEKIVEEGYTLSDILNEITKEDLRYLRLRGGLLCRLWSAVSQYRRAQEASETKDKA

Chain of Serine/threonine-protein kinase PLK1 (P53350 whole entry): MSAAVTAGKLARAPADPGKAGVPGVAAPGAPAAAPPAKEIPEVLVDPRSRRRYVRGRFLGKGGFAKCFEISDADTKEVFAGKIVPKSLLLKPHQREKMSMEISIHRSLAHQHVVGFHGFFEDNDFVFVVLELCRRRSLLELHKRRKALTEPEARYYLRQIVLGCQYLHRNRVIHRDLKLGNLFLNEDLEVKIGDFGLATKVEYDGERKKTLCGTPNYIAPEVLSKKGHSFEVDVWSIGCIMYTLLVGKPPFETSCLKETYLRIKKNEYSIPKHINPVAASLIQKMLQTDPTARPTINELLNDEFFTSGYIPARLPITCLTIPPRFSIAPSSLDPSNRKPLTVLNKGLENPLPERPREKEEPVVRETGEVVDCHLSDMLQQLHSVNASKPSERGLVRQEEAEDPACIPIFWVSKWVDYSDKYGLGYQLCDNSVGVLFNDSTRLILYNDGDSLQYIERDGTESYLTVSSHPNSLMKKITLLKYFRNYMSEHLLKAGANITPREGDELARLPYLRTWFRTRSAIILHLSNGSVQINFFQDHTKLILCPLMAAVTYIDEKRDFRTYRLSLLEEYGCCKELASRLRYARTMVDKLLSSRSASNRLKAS

% of inhibition [1]: 3.7%
SMILES: CC[C@@H]1[C@H](F)C(=O)N[C@@H]1COc1nccc2cc(C(N)=O)c(OC)cc12 [ZIMLOVISERTIB]

% of control [2]: 95%
SMILES: CC(=O)c1cc(-c2ccccc2OCC2CC2)c2ncccn12

SMILES: CCC(=O)N1CCN(c2ccc(-n3c(=O)ccc4cnc5ccc(-c6cnc7ccccc7c6)cc5c43)cc2C(F)(F)F)CC1
% of control [3]: 91%

SMILES: C=CC(=O)Nc1ccc(C(=O)Nc2[nH]nc3c2CN(C(=O)N[C@H](CN(C)C)c2ccccc2)C3(C)C)cc1
% of engagement [4]: 4.9%
